Laboratory results published in BindingDB's records for doi:10.1016/j.chembiol.2005.02.007 (Stanford University, 2005).
pKi: −log10 of the molar value.

target: T1, Protein-glutamine gamma-glutamyltransferase 2 (Homo sapiens, UniProt P21980); assay: TG Inhibition Assay; conditions: pH 7.2
T1 sequence (P21980 whole entry): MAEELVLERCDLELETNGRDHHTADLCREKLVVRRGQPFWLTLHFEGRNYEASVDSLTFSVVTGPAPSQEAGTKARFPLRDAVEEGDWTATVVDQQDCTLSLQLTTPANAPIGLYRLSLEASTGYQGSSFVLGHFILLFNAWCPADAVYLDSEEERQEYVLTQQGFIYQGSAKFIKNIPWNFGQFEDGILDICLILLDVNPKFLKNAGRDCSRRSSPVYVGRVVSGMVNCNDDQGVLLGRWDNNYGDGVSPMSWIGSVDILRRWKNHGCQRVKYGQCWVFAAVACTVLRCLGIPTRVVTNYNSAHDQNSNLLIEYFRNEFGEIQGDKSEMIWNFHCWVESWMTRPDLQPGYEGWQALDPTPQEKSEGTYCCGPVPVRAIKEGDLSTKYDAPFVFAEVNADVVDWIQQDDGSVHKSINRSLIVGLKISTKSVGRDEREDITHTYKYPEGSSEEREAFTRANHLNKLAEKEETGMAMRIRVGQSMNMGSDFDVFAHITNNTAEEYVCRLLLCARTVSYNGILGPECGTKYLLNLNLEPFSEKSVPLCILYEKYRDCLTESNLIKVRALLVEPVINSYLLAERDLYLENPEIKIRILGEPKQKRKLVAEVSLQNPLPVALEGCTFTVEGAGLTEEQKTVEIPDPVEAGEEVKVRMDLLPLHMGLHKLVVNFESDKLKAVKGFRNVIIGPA
Source text: Recombinant of human TG2 was expressed in E.coli and purified to >90% homogeneity.

Structure (SMILES)	pKi
O=C(N[C@@H](Cc1ccccc1)C(=O)NCC1CC(Br)=NO1)Oc1ccc2ccccc2c1 (some centres undefined) [Dihydroisoxazole, 3e]	4.37
O=C(N[C@@H](Cc1ccccc1)C(=O)NCC1CC(Br)=NO1)OCCc1ccccc1 (some centres undefined) [Dihydroisoxazole, 3d]	4.21
O=C(N[C@@H](Cc1c[nH]c2ccc(O)cc12)C(=O)NCC1CC(Br)=NO1)OCc1ccccc1 (some centres undefined) [Dihydroisoxazole, 1f]	3.51
O=C(N[C@@H](Cc1ccccc1)C(=O)NCC1CC(Br)=NO1)OCC1=Cc2ccccc2S1(=O)=O (some centres undefined) [Dihydroisoxazole, 3f]	4.06
